Test results reported in patent publication US20240058335A1, “METHODS FOR TREATMENT OF CANCER USING ABL INHIBITORS AND DRUGS TARGETING THE MEVALONATE PATHWAY” (Duke University, priority 2021, published 2024).
Like-named read-outs stand apart in the source and are kept apart here.

Columns and labels:
PC9 GR4 cells [1] = experiment: Cell viability dose-response assay (CellTiter-Glo), IC50 calculation; format: cell-based, human
H460 cells = experiment: as above; format: cell-based, human
H358 cells = experiment: as above; format: cell-based, human
PC9 BrM3 cells = experiment: as above; format: cell-based, human; conditions: read-out: Calculated IC50
[2] = system: lung cancer cells (PC9, PC9 GR4, H460, H358); experiment: Seahorse XF Analyzer Mito Stress Test (OCR: basal respiration, maximal respiration, ATP production); format: cell-based, human; conditions: for mitochondrial function (basal respiration, maximal respiration, ATP production; OCR): IC50 doses, 24 hours, PC9, PC9 GR4, H460, H358; for mitochondrial respiration in cells treated with ABL001 and simvastatin (MVA rescue and its reversal): PC9 GR4, added to ABL001 + simvastatin (inhibitors with MVA)
Excerpt: (FIGS. 2A-2D) Seahorse XF Analyzer Mito Stress Test analysis of mitochondrial basal respiration, maximal respiration, and ATP production as measured by changes in oxygen consumption rate (OCR). […] (FIG. 2E) Mitochondrial basal respiration, maximal respiration, and ATP production as measured by Seahorse XF Analyzer's Mito Stress Test for PC9 cells harboring shRNAs against ABL1/ABL2 (shAA) and non-targeting control (shSCR). (FIGS. 2F-2G) Mitochondrial ROS (MitoROS) release as measured by FACS analysis of median fluorescent intensity (MFI) using Mitosox probe. […] Data are mean±SEM. […] Seahorse XF Analyzer Mito Stress Test analysis of mitochondrial basal respiration, maximal respiration, and ATP production as measured by changes in oxygen consumption rate (OCR) in the indicated lung cancer cells: (FIG. 8A) PC9; (FIG. 8B) PC9 GR4; (FIG. 8C) H460. […] Doses correspond to IC50 dose for each drug in the corresponding cell line. In each graph, for each of Basal Respiration, Maximal Respiration, and ATP production, data is shown from left to right for DMSO, GNF5, and Nilotinib. […] Cells were treated with IC50 doses for 24 hours (n=3). Data are mean±SEM. […] SEAHORSE MEASUREMENTS. Basal and maximal oxygen consumption rate and ATP production were measured using a Mito Stress test Kit and XF96 Extracellular Flux Analyzer (Seahorse Bioscience), according to manufacturer's instructions. Cells were plated in XF96 plates at 10,000 cells per well on Day 0. […] The plate was incubated in a non-CO2 incubator at 37° C. for 1 hr to equilibrate.

[3] = system: PC9, PC9 GR4 and H460 cells; experiment: MitoSOX staining, mitochondrial ROS by FACS; format: cell-based, human; conditions: EGFR mutant PC9 and PC9 GR4 cells, IC50 doses, 24 hours
PC9 and H460 cells = experiment: MitoTracker staining, mitochondria number and morphology; format: cell-based, human; conditions: IC50 dose, 24 hours
Method: (FIG. 9A) Mitochondrial basal respiration, maximal respiration, and ATP production as measured by changes in oxygen consumption rate (OCR) from Seahorse XF Analyzer Mito Stress Test analysis for H460 cells harboring shRNAs against ABL1/ABL2 (shAA) and non-targeting control (shSCR). (FIG. 9B) FACS analysis of mitochondrial ROS (MitoROS) using mitosox probe in H460 cells treated with 15 NM GNF5, 15 NM ABL001, and 0.5 nM Docetaxel for 24 hours. n=3 (FIGS. 9C-9D) MitoROS in H460 AA knockdown cells (FIG. 9C) or PC9 AA knockdown cells (FIG. 9D). (FIGS. 9E-9F) M[…] to analyze mitochondria number in H460 cells with 15 NM GNF5 (FIG. 9E) or PC9 cells treated with 10 NM GNF5 (FIG. 9F). n=3 (FIGS. 9G-9H) M[…] of H460 AA knockdown cells (FIG. 9G) or PC9 AA knockdown cells (FIG. 9H). n=3 Statistical analysis was calculated using unpaired two-tailed t test *p<0.05, Data are mean±SEM. (FIG. 9I) H460 cells stained with Mitotracker and Hoescht 33342 following treatment with IC50 dose for each drug for 24 hours. Image quantification showing mitochondrial length×width plotted for thousands of mitochondria from >10 cells across at least two independent experiments. Changes were not statistically significant.
M[…] . MitoTracker Red CMXRos was purchased from Thermofisher (cat. M7512). […] The samples were analyzed using flow cytometer BD FACS Canto II. […]

[4] = system: lung cancer cells (PC9, PC9 GR4, PC9 BrM3, H460, H358); experiment: 72 hr growth inhibition / cell viability assay with drug combinations and metabolite rescue; format: cell-based, human; conditions: for cell survival in the presence of statins: PC9-BrM3, sub-therapeutic doses, 72 hrs; for cell survival on co-treatment with ABL001: PC9 GR4, PC9 and H460 cells; for rescue of cell survival in cells co-treated with ABL001 and simvastatin: metabolite supplement, 72 hours, PC9 GR4, PC9, H460
PC9 cells [5] = experiment: cells; conditions: Homo sapiens, PC-9, read-out: Calculated IC50
[6] = cited from earlier work
PC9 cells [7] = conditions: read-out: Calculated IC50, dose-response assay
[8] = system: lung cancer cells (PC9, PC9 GR4, PC9 BrM3, H460); experiment: Immunoblotting of apoptosis, prenylation and cytochrome c markers; format: cell-based, human; conditions: 24 hr
PC9 GR4 cells [9] = experiment: Real-time quantitative PCR of BCL-2 family mRNAs; format: cell-based, human; conditions: PC9 GR4, metabolite supplement, 24 hours
Method: (FIG. 5E) Immunoblots of cytochrome c, cleaved PARP, β-catenin, GAPDH, and β-Tubulin. […] Cytoplasmic, membrane, and whole cell fractions are shown for drug treatments. […] Data are mean±SEM. REAL-TIME QUANTITATIVE PCR. RNA was isolated from subconfluent monolayers of cancer cells using the RNeasy RNA isolation kit (QIAGEN), and cDNA synthesis was performed using oligo(dT) primers and M-MLV reverse transcriptase (Invitrogen). RT-qPCR was performed in triplicate wells using iTaq Universal SYBR Green Supermix (Bio-Rad). Primers used in this study were purchased from Sigma Aldrich. Analysis of real-time data was collected using a Bio-Rad CFX384 machine and CFX Maestro software. Expression levels of each gene were normalized to GAPDH control housekeeping genes using the ddCT algorithm.

[10] = Homo sapiens, PC9 GR4, dose-response assay, read-out: Calculated IC50
[11] = Homo sapiens, NCI-H460, H460, dose-response assay, read-out: Calculated IC50
[12] = Homo sapiens, NCI-H358, H358, dose-response assay, read-out: Calculated IC50
[13] = Homo sapiens, PC9 BrM3, dose-response assay
[14] = PC9 GR4, dose-response assay, read-out: Calculated IC50
[15] = H460, dose-response assay, read-out: Calculated IC50

## O=C(Nc1ccc(OC(F)(F)Cl)cc1)c1cnc(N2CC[C@@H](O)C2)c(-c2ccn[nH]2)c1 [ABL001, Asciminib]
PC9 GR4 cells [1]; Homo sapiens, PC9/GR4, read-out: Calculated IC50
  IC50: 7.5 µM
H460 cells; Homo sapiens, NCI-H460, read-out: Calculated IC50
  IC50: 15 µM
H358 cells; Homo sapiens, NCI-H358, read-out: Calculated IC50
  IC50: 15 µM
PC9 BrM3 cells; Homo sapiens
  IC50: 7.5 µM
[2]
  mitochondrial function (basal respiration, maximal respiration, ATP production; OCR): greatly decreased
[3]
  mitochondrial reactive oxygen species (MitoROS) levels: increased
PC9 and H460 cells
  mitochondrial morphology (length and width, network): marginal, nonsignificant increase
[4]
  cell survival in the presence of statins: decreased cell survival
PC9 cells [5]
  IC50: 7.5 µM
[6]; mouse, in vivo, po
  tolerability: well tolerated
[6]; oral gavage, mice
  body weight: does not induce weight loss
[6]; preclinical mouse models
  crossing of the BBB: shown to cross the BBB

## CC(=O)O[C@@]12CO[C@@H]1C[C@H](O)[C@@]1(C)C(=O)[C@H](O)C3=C(C)[C@@H](OC(=O)[C@H](O)[C@@H](NC(=O)OC(C)(C)C)c4ccccc4)C[C@@](O)([C@@H](OC(=O)c4ccccc4)[C@H]21)C3(C)C [Docetaxel, docetaxel]
PC9 GR4 cells [1]; [10]
  IC50: 0.001 µM
H460 cells; [11]
  IC50: 0.0005 µM
H358 cells; [12]
  IC50: 0.001 µM
PC9 BrM3 cells; [13]
  IC50: 0.001 µM
[2]
  mitochondrial function (basal respiration, maximal respiration, ATP production; OCR): did not significantly impair
[4]
  cell survival in the presence of statins: did not affect cell survival
PC9 cells [5]
  IC50: 0.001 µM

## COC(=O)[C@H](CCSC)NC(=O)c1ccc(NC[C@@H](N)CS)cc1-c1ccccc1 [FTI-277]
PC9 GR4 cells [1]; [14]
  IC50: 50 µM
H460 cells; [15]
  IC50: 15 µM
[2]
  mitochondrial respiration in cells treated with ABL001 and simvastatin (MVA rescue and its reversal): minimal effect
[4]; 72 hr
  cell survival on co-treatment with ABL001: only slightly decreased
PC9 cells [7]
  IC50: 50 µM

## CC(C)n1c(/C=C/C(O)CC(O)CC(=O)O)c(-c2ccc(F)cc2)c2ccccc21 (stereo not shown) [Fluvastatin]
PC9 GR4 cells [1]; [14]
  IC50: 2 µM
H460 cells; [15]
  IC50: 4 µM
H358 cells; H358, dose-response assay, read-out: Calculated IC50
  IC50: 4 µM
PC9 BrM3 cells; PC9 BrM3, dose-response assay
  IC50: 2 µM
PC9 cells [7]
  IC50: 2 µM

## CC(C)=CCC/C(C)=C/CC/C(C)=C/CC/C(C)=C/COP(=O)(O)OP(=O)(O)O [GGPP, geranylgeranyl diphosphate]
[4]
  rescue of cell survival in cells co-treated with ABL001 and simvastatin: preferentially rescued cell viability

## COC(=O)[C@H](CC(C)C)NC(=O)c1ccc(NC[C@@H](N)CS)cc1-c1cccc2ccccc12 [GGTI-298]
PC9 GR4 cells [1]; [14]
  IC50: 20 µM
H460 cells; [15]
  IC50: 15 µM
[2]
  mitochondrial respiration in cells treated with ABL001 and simvastatin (MVA rescue and its reversal): negated the MVA rescue
[4]; 72 hr
  cell survival on co-treatment with ABL001: significantly impaired
PC9 cells [7]
  IC50: 20 µM

## COc1cc2ncnc(Nc3ccc(F)c(Cl)c3)c2cc1OCCCN1CCOCC1 [Gefitinib, gefitinib]
[2]
  mitochondrial function (basal respiration, maximal respiration, ATP production; OCR): not impaired
[4]
  cell survival in the presence of statins: did not affect cell survival

## C[C@@](O)(CCO)CC(=O)O [MVA, mevalonate]
[2]
  mitochondrial respiration in cells treated with ABL001 and simvastatin (MVA rescue and its reversal): restored mitochondrial respiration back to baseline
[4]
  rescue of cell survival in cells co-treated with ABL001 and simvastatin: could rescue cell survival
[8]; PC9 GR4, 500 μM MVA added to ABL001 and simvastatin
  reversal of cytochrome c release: reversed
[8]; metabolite supplement
  prevention of PARP and caspase-3 cleavage in cells co-treated with ABL001 and simvastatin: prevented cleavage of PARP and caspase-3
PC9 GR4 cells [9]
  restoration of BCL-2 family gene expression in combination-treated cells: restored gene expression back to baseline

## Cc1cn(-c2cc(NC(=O)c3ccc(C)c(Nc4nccc(-c5cccnc5)n4)c3)cc(C(F)(F)F)c2)cn1 [Nilotinib]
PC9 GR4 cells [1]; [10]
  IC50: 2 µM
H460 cells; [11]
  IC50: 2 µM
[2]
  mitochondrial function (basal respiration, maximal respiration, ATP production; OCR): inability of Nilotinib to inhibit mitochondria function
[4]; PC9 GR4 and H460, sublethal doses, 72 hr
  cell viability on co-treatment with simvastatin or fluvastatin: did not promote additive or synergistic decreases in cell viability
PC9 cells [5]
  IC50: 2 µM

## CCC(C)(C)C(=O)O[C@H]1C[C@@H](C)C=C2C=C[C@H](C)[C@H](CC[C@@H]3C[C@@H](O)CC(=O)O3)[C@H]21 [Simvastatin, simvastatin]
PC9 GR4 cells [1]; [10]
  IC50: 4 µM
H460 cells; [11]
  IC50: 12 µM
H358 cells; [12]
  IC50: 12 µM
PC9 BrM3 cells; [13]
  IC50: 4 µM
PC9 cells [5]
  IC50: 4 µM
